Measurements published in patent publication US20250025438A1, “Derivative of aspartic acid and use thereof in treatment of metabolic diseases such as hepatic fibrosis and non-alcoholic hepatitis” (SHENZHEN JINGTAI TECHNOLOGY CO., LTD., priority 2021, published 2025).
Structures can show the parent of a compound that is named as a salt.

Key:
Assay type in all cases: cell-based
NS3TP1 = assay: Regulation of NS3TP1 in semi-activated LX2 cells, qPCR; conditions: LX-2 cells, 48 hours, Q-PCR, vs control group
Description: (§1) Test compounds were added to the LX-2 cells respectively, and total RNA in the cells was extracted 48 hours later. This experiment was performed strictly in accordance with the instructions of the Total RNA Kit. The steps were as follows (note: this experiment was performed on ice throughout the entire process, and special RNase-free tips were used throughout the entire process): • 1) The 12-well cell culture plate was taken out from the incubator, the cell culture medium was discarded, the cells were washed twice with 1 mL of 1×PBS, and a negative pressure suction device was used to fully remove PBS; • 2) 350 μL of TRK Lysis Buffer mixture/well was prepared as needed (mixture preparation method: 1 mL of TRKLysis Buffer+20 μL of β-mercaptoethanol), vortexed and mixed well. 350 μL was added to each well of the 12-well cell culture plate, and allowed to stand at room temperature for 5 minutes to fully lyse the cells; • 3) 70% ethanol/well was prepared as needed, vortexed and mixed well. 350 μL was added to each well of the 12-well cell culture plate, mixed well by shaking, and transferred to the spin column (spin column+collection tube were assembled); • 4) Centrifugation was performed at 4° C., 12000 g for 60 sec. The waste liquid was discarded after centrifugation, while the spin column was kept; • 5) 500 μL of RNA Wash Buffer I was added, centrifuged at 4° C., 12000 g for 60 sec, the waste liquid was discarded after centrifugation, and the collection column was kept; • 6) 500 μL of RNA Wash Buffer II (confirmed that ethanol had been added) was added, centrifuged at 4° C., 12000 g for 60 sec, the waste liquid was discarded after centrifugation, and the collection column was kept; • 7) step 6) was repeated once again, centrifugation was performed at 4° C., 12000 g for 90 sec, the waste liquid was discarded after centrifugation, and the collection column was kept; • 8) Centrifugation was performed at 4° C., 12000 g for 120 sec to ensure that the spin column was fully dried; • 9) The dried spin column was inserted into a new 1.5 mL EP tube, and 30 μL of DEPC water was added to the membrane in the center of the spin column. It should be careful not to touch the EP tube cover in this step. It was allowed to stand at room temperature for 5 minutes to ensure that the RNA was fully dissolved in DEPC water. Centrifugation was performed at 4° C., 12000 g for 60 sec, and the EP tube was kept; • 10) NanoDrop ultra-micro-volume spectrophotometer was used to detect RNA concentration;
5.2 Reverse transcription of RNA into cDNA: According to the instructions of PrimeScript™ RT reagent Kit (Perfect Real Time), the specific experimental steps were as follows:
(§2) 5.3 Q-PCR detection of target gene expression: According to the instructions of Power SYBR® Green PCR Master Mix, the specific operations were as follows:
After the reaction was completed, the amplification curve and dissolution curve of Q-PCR were confirmed, and the relative quantification method ([…]) was used to perform data analysis on the experimental results.
LX2 cells were passaged and plated normally. […] After 48 hours, the cells were collected, total RNA was extracted, and the expression of NS3TP1 gene was detected using Q-PCR method.

COL1A1 = assay: In vitro efficacy in semi-activated LX2 cells, qPCR: COL1A1; conditions: Homo sapiens, LX-2, 50 µM, 48 hours, Q-PCR, read-out: COL1A1 mRNA inhibition rate
α-SMA [1] = assay: In vitro efficacy in semi-activated LX2 cells, qPCR: α-SMA; conditions: 48 hours, Q-PCR; for inhibition at 50 µM: read-out: α-SMA mRNA inhibition rate; for inhibition of the expression of α-SMA at the mRNA level: Table 2
Procedure, shortened: (§3)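 LX2 cells, adhered 12 h, then exposed to test compound at 50 µM for 48 h. Total RNA extracted, reverse-transcribed and measured by SYBR Green qPCR. Relative mRNA expression by the comparative (relative quantification) method.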

Smad3 = assay: In vitro efficacy in semi-activated LX2 cells, qPCR: Smad3; conditions: 48 hours, Q-PCR; for inhibition of the expression of Smad3 at the mRNA level: Table 2; for inhibition at 50 µM: Homo sapiens, LX-2, 50 µM, read-out: Smad3 mRNA inhibition rate
Procedure, shortened: as §3

IL-1β = assay: In vitro efficacy in semi-activated LX2 cells, qPCR: IL-1β; conditions: Homo sapiens, LX-2, 50 µM, 48 hours, Q-PCR, read-out: IL-1β mRNA inhibition rate
TNF-α = assay: In vitro efficacy in semi-activated LX2 cells, qPCR: TNF-α; conditions: Homo sapiens, LX-2, 48 hours, Q-PCR, read-out: TNF-α mRNA inhibition rate
[2] = tested on: collagen I and collagen III; assay: Semi-activated LX2 cells, qPCR: collagen I and collagen III at the mRNA level; conditions: 48 hours, Q-PCR, Table 2
Procedure, shortened: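 LX-2 human hepatic stellate cells, adhered 12 h, were treated with 50 µM test compound for 48 h. Total RNA was extracted, and COL1A1, COL1A2 and COL3A1 mRNA were measured by SYBR Green qPCR.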

[3] = tested on: liver fibrosis-related genes; assay: Semi-activated LX2 cells, qPCR: liver fibrosis-related genes overall; conditions: 48 hours, Q-PCR, Table 2
Description: as §1, §2
LX2 cells were passaged and plated normally. After adherent growth for 12 hours, 50 µM of the test compound was added. After 48 hours, the cells were collected, total RNA was extracted, and Q-PCR was used to detect the changes in the mRNA expression levels of liver fibrosis-related genes (ACTA2 encoding α-SMA, COL1A1 and COLIA2 encoding collagen I, COL3A1 encoding collagen III, SMAD3 encoding Smad3) and inflammation-related genes (IL1β encoding IL-1β, TNFα encoding TNFα) (for specific methods, see 5. Q-PCR detection of target gene expression as described above). α-SMA was a marker of hepatic stellate cell activation, and collagen I and collagen III were the main components of extracellular matrix deposition.

collagen I = assay: Semi-activated LX2 cells, Western blot: collagen I protein; conditions: 50-400 μM, 48 hours, FIG. 1, vs 50 μM aspartic acid
α-SMA [4] = assay: Semi-activated LX2 cells, Western blot: α-SMA protein; conditions: 50-400 μM, 48 hours, FIG. 2, vs 50 μM aspartic acid

SMILES | Up-regulation of NS3TP1 (NS3TP1; 200 µM compound) | inhibition at 50 µM (COL1A1) [%] | inhibition at 50 µM (α-SMA [1]) [%] | inhibition of the expression of α-SMA at the mRNA level (α-SMA [1]) | inhibition of the expression of Smad3 at the mRNA level (Smad3) | inhibition at 50 µM (Smad3) [%] | inhibition at 50 µM (IL-1β) [%] | inhibition at 50 µM (TNF-α) [%] | inhibition of the expression of collagen I and collagen III at the mRNA level [2] | inhibition of the mRNA expression levels of liver fibrosis-related genes (overall) [3] | inhibitory effect on collagen I protein expression as compared to ASP (collagen I) | inhibitory effect on α-SMA protein as compared to ASP (α-SMA [4]) | Up-regulation of NS3TP1 (NS3TP1; test concentration 10 mM)
COC(=O)C[C@H](N)C(=O)O [Compound 6] | A (A represented that the up-regulation was 40% or above) | 25 to 50 | 10 to 25 | could inhibit | could inhibit | 25 to 50 | 1 to 10 | 10 to 25 | could inhibit | stronger effects | stronger inhibitory effects | stronger inhibitory effects | –
COC(=O)[C@@H](N)CC(=O)O [Compound 4] | – | 25 to 50 | 25 to 50 | could inhibit | could inhibit | 25 to 50 | 1 to 10 | 25 to 50 | could inhibit | stronger effects | – | stronger inhibitory effects | B (B represented that the up-regulation was 20~40%)
N[C@@H](CCC(=O)O)C(=O)O [Compound 47] | – | 25 to 50 | – | – | – | 1 to 10 | 1 to 10 | 10 to 25 | could inhibit | stronger effects | stronger inhibitory effects | stronger inhibitory effects | –
COC(=O)C[C@H](N)C(=O)OCOC(=O)[C@@H](N)CC(=O)OC [Compound 54, 4-dimethyl O′1,01-methylene (2S,2'S)-bis (2-aminosuccinate) hydrochloride] | A (A represented that the up-regulation was 40% or above) | 25 to 50 | – | could inhibit | – | – | – | 1 to 10 | could inhibit | stronger effects | stronger inhibitory effects | – | –
